In PubChem BioAssay AID2060905 (Molecular Pharmacology Branch, DTP, NCI, 2025):

System: 282377-053-R-J1-PDC complex spheroid viability
Assay: Anticancer human tumor 282377-053-R-J1-PDC patient-derived colon adenocarcinoma cell line growth inhibition [RAS]
Conditions: for IC50: curve of first compound; for viability, T/C: stronger effect = lower value
Method in brief: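 Agents were tested in combination matrices in half-log decrements from a top concentration at or near clinical Cmax (10 microM if undetermined). Targets were multi-cell spheroids of tumour lines plus HUVEC and MSC stromal cells.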

[1] = second compound 0.0316 µM, first compound 0.0316 µM
[2] = second compound 0.0316 µM, first compound 0.1 µM
[3] = second compound 0.0316 µM, first compound 0.316 µM
[4] = second compound 0.0316 µM, first compound 1 µM
[5] = second compound 0.1 µM, first compound 0.0316 µM
[6] = second compound 0.1 µM, first compound 0.1 µM
[7] = second compound 0.1 µM, first compound 0.316 µM
[8] = second compound 0.1 µM, first compound 1 µM
[9] = second compound 0.316 µM, first compound 0.0316 µM
[10] = second compound 0.316 µM, first compound 0.1 µM
[11] = second compound 0.316 µM, first compound 0.316 µM
[12] = second compound 0.316 µM, first compound 1 µM
[13] = second compound 1 µM, first compound 0.0316 µM
[14] = second compound 1 µM, first compound 0.1 µM
[15] = second compound 1 µM, first compound 0.316 µM
[16] = second compound 1 µM, first compound 1 µM
[17] = second compound 3.16 µM, first compound 0.0316 µM
[18] = second compound 3.16 µM, first compound 0.1 µM
[19] = second compound 3.16 µM, first compound 0.316 µM
[20] = second compound 3.16 µM, first compound 1 µM
[21] = second compound 10 µM, first compound 0.0316 µM
[22] = second compound 10 µM, first compound 0.1 µM
[23] = second compound 10 µM, first compound 0.316 µM
[24] = second compound 10 µM, first compound 1 µM
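Also: spheroids exposed to agents for seven days before readout.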
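For viability, T/C in this document: luminescence viability as percent of DMSO vehicle control wells.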

Question: Which results are given for `C=CC(=O)Nc1cc(Nc2nccc(-c3cn(C)c4ccccc34)n2)c(OC)cc1N(C)CCN(C)C` + C#Cc1c(F)ccc2cc(O)cc(-c3ncc4c(N5CC6CCC(C5)N6)nc(OCC56CCCN5CC(F)C6)nc4c3F)c12?
Answer: IC50 (second compound 0.0316 µM): > 1 µM; IC50 (second compound 0.1 µM): > 1 µM; IC50 (second compound 0.316 µM): > 1 µM; IC50 (second compound 1 µM): > 1 µM; IC50 (second compound 3.16 µM): > 1 µM; IC50 (second compound 10 µM): > 1 µM; viability, T/C (second compound 0.0316 µM, first compound 0.00316 µM): 104%; viability, T/C (second compound 0.0316 µM, first compound 0.01 µM): 91.5%; viability, T/C [1]: 98.2%; viability, T/C [2]: 104%; viability, T/C [3]: 95.6%; viability, T/C [4]: 110%; viability, T/C (second compound 0.1 µM, first compound 0.00316 µM): 96.6%; viability, T/C (second compound 0.1 µM, first compound 0.01 µM): 90.4%; viability, T/C [5]: 99.9%; viability, T/C [6]: 91.9%; viability, T/C [7]: 93.5%; viability, T/C [8]: 97.4%; viability, T/C (second compound 0.316 µM, first compound 0.00316 µM): 88.1%; viability, T/C (second compound 0.316 µM, first compound 0.01 µM): 85.3%; viability, T/C [9]: 84.9%; viability, T/C [10]: 86.1%; viability, T/C [11]: 91.7%; viability, T/C [12]: 85.9%; viability, T/C (second compound 1 µM, first compound 0.00316 µM): 98.5%; viability, T/C (second compound 1 µM, first compound 0.01 µM): 100%; viability, T/C [13]: 93%; viability, T/C [14]: 108%; viability, T/C [15]: 82.8%; viability, T/C [16]: 95.9%; viability, T/C (second compound 3.16 µM, first compound 0.00316 µM): 88.2%; viability, T/C (second compound 3.16 µM, first compound 0.01 µM): 87.8%; viability, T/C [17]: 114%; viability, T/C [18]: 92.3%; viability, T/C [19]: 108%; viability, T/C [20]: 101%; viability, T/C (second compound 10 µM, first compound 0.00316 µM): 103%; viability, T/C (second compound 10 µM, first compound 0.01 µM): 94.9%; viability, T/C [21]: 108%; viability, T/C [22]: 73%; viability, T/C [23]: 80.1%; viability, T/C [24]: 99.2%

Question: What does the source list for `C[C@@H](NC(=O)c1ncnc(N)c1Cl)c1ncc(C(=O)Nc2cc(C(F)(F)F)c(Cl)cn2)s1` + C#Cc1c(F)ccc2cc(O)cc(-c3ncc4c(N5CC6CCC(C5)N6)nc(OCC56CCCN5CC(F)C6)nc4c3F)c12?
Answer: IC50 (second compound 0.0316 µM): > 10 µM; IC50 (second compound 0.1 µM): > 10 µM; IC50 (second compound 0.316 µM): > 10 µM; IC50 (second compound 1 µM): > 10 µM; IC50 (second compound 3.16 µM): > 10 µM; IC50 (second compound 10 µM): > 10 µM; viability, T/C [1]: 121%; viability, T/C [2]: 99.5%; viability, T/C [3]: 89.2%; viability, T/C [4]: 86.5%; viability, T/C (second compound 0.0316 µM, first compound 3.16 µM): 87.1%; viability, T/C (second compound 0.0316 µM, first compound 10 µM): 78.5%; viability, T/C [5]: 103%; viability, T/C [6]: 111%; viability, T/C [7]: 88.7%; viability, T/C [8]: 76.7%; viability, T/C (second compound 0.1 µM, first compound 3.16 µM): 79.6%; viability, T/C (second compound 0.1 µM, first compound 10 µM): 93.5%; viability, T/C [9]: 105%; viability, T/C [10]: 112%; viability, T/C [11]: 84.8%; viability, T/C [12]: 91.2%; viability, T/C (second compound 0.316 µM, first compound 3.16 µM): 75.7%; viability, T/C (second compound 0.316 µM, first compound 10 µM): 71.7%; viability, T/C [13]: 104%; viability, T/C [14]: 86.6%; viability, T/C [15]: 94.1%; viability, T/C [16]: 67%; viability, T/C (second compound 1 µM, first compound 3.16 µM): 90.4%; viability, T/C (second compound 1 µM, first compound 10 µM): 77%; viability, T/C [17]: 79.9%; viability, T/C [18]: 101%; viability, T/C [19]: 104%; viability, T/C [20]: 77.5%; viability, T/C (second compound 3.16 µM, first compound 3.16 µM): 80.9%; viability, T/C (second compound 3.16 µM, first compound 10 µM): 80.3%; viability, T/C [21]: 91.3%; viability, T/C [22]: 102%; viability, T/C [23]: 91.9%; viability, T/C [24]: 85%; viability, T/C (second compound 10 µM, first compound 3.16 µM): 90.8%; viability, T/C (second compound 10 µM, first compound 10 µM): 86.9%
